Test results reported in ChEMBL document CHEMBL1201862, “PubChem BioAssay data set” (2004).
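Briefly, cells in 96-well plates were exposed to five compound concentrations for 48 h, and endpoints were estimated by linear interpolation. At the GI50, growth is halved.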 The source made the active and inactive calls. No stated cut-off is given here; in the data, active = GI50 up to about 1.1 µM and inactive = higher.

Assays:
Experiment in all cases: NCI-60 cell line screen, 48 h
HCT-15 = tested on: HCT-15
NCI-H23 = tested on: NCI-H23
NCI-H226 = tested on: NCI-H226
UO-31 = tested on: UO-31
SK-MEL-2 = tested on: SK-MEL-2
HT-29 = tested on: HT-29
OVCAR-3 = tested on: OVCAR-3
CCRF-CEM = tested on: CCRF-CEM
SK-MEL-28 = tested on: SK-MEL-28
LOX IMVI = tested on: LOX IMVI
RXF 393 = tested on: RXF 393
A549 = tested on: A549
SR = tested on: SR
TK-10 = tested on: TK-10
SF-539 = tested on: SF-539
U-251 = tested on: U-251
M14 = tested on: M14
SK-OV-3 = tested on: SK-OV-3
K562 = tested on: K562
Malme-3M = tested on: Malme-3M

Row | Structure (SMILES) | GI50 (HCT-15) | GI50 (NCI-H23) | GI50 (NCI-H226) | GI50 (UO-31) | GI50 (SK-MEL-2) | GI50 (HT-29) | GI50 (OVCAR-3) | GI50 (CCRF-CEM) | GI50 (SK-MEL-28) | GI50 (LOX IMVI) | GI50 (RXF 393) | GI50 (A549) | GI50 (SR) | GI50 (TK-10) | GI50 (SF-539) | GI50 (U-251) | GI50 (M14) | GI50 (SK-OV-3) | GI50 (K562) | GI50 (Malme-3M)
1 | CC(=O)N(C)SCC(NC(=O)C(Cc1ccccc1)NC(=O)OCc1ccccc1)C(=O)NC(Cc1ccccc1)C(=O)NC(Cc1cn(C=O)c2ccccc12)C(=O)NC(CCCCNC(=O)OCc1ccccc1)C(=O)NC(C(=O)NC(CSN(C)C(C)=O)C(=O)NO)C(C)OCc1ccccc1 (stereo not given) | > 100 µM | > 100 µM (inactive) | > 100 µM (inactive) | > 100 µM (inactive) | > 100 µM (inactive) | > 100 µM (inactive) | > 100 µM (inactive) | > 100 µM (inactive) | > 100 µM (inactive) | > 100 µM (inactive) | > 100 µM (inactive) | > 100 µM (inactive) | > 100 µM (inactive) | > 100 µM (inactive) | > 100 µM (inactive) | > 100 µM (inactive) | > 100 µM (inactive) | > 100 µM (inactive) | > 100 µM (inactive) | > 100 µM (inactive)
2 | O=C(O)CNC(=O)c1cccc2c(=O)c3ccccc3[nH]c12 | > 100 µM | > 100 µM (inactive) | > 100 µM (inactive) | 70.1 µM (inactive) | > 100 µM (inactive) | > 100 µM (inactive) | > 100 µM (inactive) | 97.3 µM (inactive) | > 100 µM (inactive) | > 100 µM (inactive) | > 100 µM (inactive) | > 100 µM (inactive) | 14.9 µM (inactive) | > 100 µM (inactive) | > 100 µM (inactive) | > 100 µM (inactive) | > 100 µM (inactive) | > 100 µM (inactive) | > 100 µM (inactive) | > 100 µM (inactive)
3 | COC(=O)C1(F)C(=O)NC(=O)NC1O (stereo not given) | 61.5 µM | > 100 µM (inactive) | > 100 µM (inactive) | 59.4 µM (inactive) | > 100 µM (inactive) | > 66.5 µM (inactive) | 62.7 µM (inactive) | > 89.1 µM (inactive) | > 100 µM (inactive) | > 100 µM (inactive) | > 100 µM (inactive) | 90.8 µM (inactive) | > 53 µM (inactive) | > 100 µM (inactive) | 25.4 µM (inactive) | > 100 µM (inactive) | > 100 µM (inactive) | > 100 µM (inactive) | > 84.5 µM (inactive) | > 100 µM (inactive)
4 | CCCc1[nH]c2ccccc2c1-c1c(CCC)[nH]c2ccccc12 | 3.62 µM | 8.05 µM (inactive) | 19.2 µM (inactive) | 16.7 µM (inactive) | 14.2 µM (inactive) | 8.61 µM (inactive) | 8.2 µM (inactive) | 8.26 µM (inactive) | 7.46 µM (inactive) | 4.35 µM (inactive) | 20 µM (inactive) | 27.7 µM (inactive) | 19 µM (inactive) | 21.6 µM (inactive) | 8.36 µM (inactive) | 6.71 µM (inactive) | 12.6 µM (inactive) | 24.1 µM (inactive) | 7.74 µM (inactive) | 16 µM (inactive)
5 | Cc1cc(O)nc(NNC(C#N)c2ccc(O)cc2)n1 (stereo not given) | > 100 µM | > 100 µM (inactive) | > 100 µM (inactive) | > 100 µM (inactive) | > 100 µM (inactive) | > 100 µM (inactive) | > 100 µM (inactive) | > 100 µM (inactive) | > 100 µM (inactive) | > 100 µM (inactive) | > 100 µM (inactive) | > 100 µM (inactive) | > 100 µM (inactive) | > 100 µM (inactive) | > 100 µM (inactive) | > 100 µM (inactive) | > 100 µM (inactive) | > 100 µM (inactive) | > 100 µM (inactive) | > 100 µM (inactive)
6 | COc1ccc2cc(CN3CCC(C4CCN(Cc5ccc6cc(OC)ccc6c5)CC4)CC3)ccc2c1 | 1.45 µM | 17.1 µM (inactive) | 16.6 µM (inactive) | 3.14 µM (inactive) | 4.44 µM (inactive) | 2.2 µM (inactive) | 3.1 µM (inactive) | 2.16 µM (inactive) | 2.21 µM (inactive) | 2.14 µM (inactive) | 5.16 µM (inactive) | 24.9 µM (inactive) | 1.24 µM (inactive) | 3.25 µM (inactive) | 3.19 µM (inactive) | 2.52 µM (inactive) | 2.33 µM (inactive) | 26.3 µM (inactive) | 0.455 µM (active) | 2.17 µM (inactive)
7 | COc1cc([C@@H]2c3cc4c(cc3[C@@H](Nc3ccc(Cl)cc3C(=O)c3ccccc3Cl)[C@H]3COC(=O)[C@H]23)OCO4)cc(OC)c1OC | 0.102 µM | 0.166 µM (active) | 0.0294 µM (active) | 0.344 µM (active) | 0.953 µM (active) | 0.09 µM (active) | 0.332 µM (active) | 0.101 µM (active) | 0.333 µM (active) | 0.245 µM (active) | 0.144 µM (active) | 0.34 µM (active) | 0.0713 µM (active) | 39.7 µM (inactive) | 0.076 µM (active) | 0.0998 µM (active) | 0.303 µM (active) | 1.19 µM (inactive) | 0.106 µM (active) | 0.143 µM (active)
